Reference: PubChem BioAssay (NCI)
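Five concentrations, 48 hours, 96-well plates. TGI denotes the concentration required for complete inhibition of growth.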

Experiments:
Assay in all cases: growth of human tumour cells (NCI), 48 h
RXF 393 renal = system: RXF 393 renal
MALME-3M melanoma = system: MALME-3M melanoma
UACC-257 melanoma = system: UACC-257 melanoma
A498 renal = system: A498 renal
CAKI-1 renal = system: CAKI-1 renal
MOLT-4 leukemia = system: MOLT-4 leukemia
U251 CNS = system: U251 CNS
CCRF-CEM leukemia = system: CCRF-CEM leukemia
SF-539 CNS = system: SF-539 CNS
SF-295 CNS = system: SF-295 CNS
SK-MEL-5 melanoma = system: SK-MEL-5 melanoma
SN12C renal = system: SN12C renal
M14 melanoma = system: M14 melanoma
SW-620 colon = system: SW-620 colon
MDA-MB-231 breast = system: MDA-MB-231 breast
SF-268 CNS = system: SF-268 CNS
HS 578T breast = system: HS 578T breast
NCI-H460 lung = system: NCI-H460 lung
DU-145 prostate = system: DU-145 prostate
RPMI-8226 leukemia = system: RPMI-8226 leukemia
SNB-19 CNS = system: SNB-19 CNS
NCI/ADR-RES ovarian = system: NCI/ADR-RES ovarian
HCT-15 colon = system: HCT-15 colon
LOX IMVI melanoma = system: LOX IMVI melanoma
OVCAR-8 ovarian = system: OVCAR-8 ovarian
A549 NSCLC = system: A549 NSCLC
HCT-116 colon = system: HCT-116 colon
HCC-2998 colon = system: HCC-2998 colon
MDA-N = system: MDA-N
COLO 205 colon = system: COLO 205 colon
T-47D breast = system: T-47D breast
SK-MEL-2 melanoma = system: SK-MEL-2 melanoma
UACC-62 melanoma = system: UACC-62 melanoma
MCF7 breast = system: MCF7 breast
UO-31 renal = system: UO-31 renal
OVCAR-4 ovarian = system: OVCAR-4 ovarian
786-0 renal = system: 786-0 renal
IGROV1 ovarian = system: IGROV1 ovarian
SNB-75 CNS = system: SNB-75 CNS
SK-MEL-28 melanoma = system: SK-MEL-28 melanoma
K-562 leukemia = system: K-562 leukemia
PC-3 prostate = system: PC-3 prostate
EKVX NSCLC = system: EKVX NSCLC
NCI-H23 lung = system: NCI-H23 lung
SR leukemia = system: SR leukemia
ACHN renal = system: ACHN renal
NCI-H226 lung = system: NCI-H226 lung
OVCAR-5 ovarian = system: OVCAR-5 ovarian
KM12 colon = system: KM12 colon
NCI-H522 lung = system: NCI-H522 lung
HOP-62 NSCLC = system: HOP-62 NSCLC
MDA-MB-435 = system: MDA-MB-435
OVCAR-3 ovarian = system: OVCAR-3 ovarian
HOP-92 NSCLC = system: HOP-92 NSCLC
TK-10 renal = system: TK-10 renal
SK-OV-3 ovarian = system: SK-OV-3 ovarian
HL-60(TB) leukemia = system: HL-60(TB) leukemia
BT-549 breast = system: BT-549 breast
HT29 colon = system: HT29 colon

Measured: TGI

CS(=O)(=O)c1ccc(C2=C(c3ccccc3)C(=O)OC2)cc1
> 100 µM: RXF 393 renal | MALME-3M melanoma | UACC-257 melanoma | A498 renal | CAKI-1 renal | MOLT-4 leukemia | U251 CNS | CCRF-CEM leukemia | SF-539 CNS | SF-295 CNS | SK-MEL-5 melanoma | SN12C renal | M14 melanoma | SW-620 colon | MDA-MB-231 breast | SF-268 CNS | HS 578T breast | NCI-H460 lung | DU-145 prostate | RPMI-8226 leukemia | SNB-19 CNS | NCI/ADR-RES ovarian | HCT-15 colon | LOX IMVI melanoma | OVCAR-8 ovarian | A549 NSCLC | HCT-116 colon | HCC-2998 colon | MDA-N | COLO 205 colon | T-47D breast | SK-MEL-2 melanoma | UACC-62 melanoma | MCF7 breast | UO-31 renal | OVCAR-4 ovarian | 786-0 renal | IGROV1 ovarian | SNB-75 CNS | SK-MEL-28 melanoma | K-562 leukemia | PC-3 prostate | EKVX NSCLC | NCI-H23 lung | SR leukemia | ACHN renal | NCI-H226 lung | OVCAR-5 ovarian | KM12 colon | NCI-H522 lung | HOP-62 NSCLC | MDA-MB-435 | OVCAR-3 ovarian | HOP-92 NSCLC | TK-10 renal | SK-OV-3 ovarian | HL-60(TB) leukemia

Nc1c(Cl)ncnc1NCC1(CO)CCC1
> 100 µM: MALME-3M melanoma | UACC-257 melanoma | A498 renal | MOLT-4 leukemia | U251 CNS | CCRF-CEM leukemia | SF-539 CNS | SF-295 CNS | SK-MEL-5 melanoma | SN12C renal | SW-620 colon | MDA-MB-231 breast | SF-268 CNS | HS 578T breast | NCI-H460 lung | DU-145 prostate | RPMI-8226 leukemia | NCI/ADR-RES ovarian | HCT-15 colon | LOX IMVI melanoma | OVCAR-8 ovarian | A549 NSCLC | HCT-116 colon | MDA-N | COLO 205 colon | SK-MEL-2 melanoma | MCF7 breast | UO-31 renal | BT-549 breast | OVCAR-4 ovarian | 786-0 renal | IGROV1 ovarian | SNB-75 CNS | SK-MEL-28 melanoma | K-562 leukemia | PC-3 prostate | EKVX NSCLC | NCI-H23 lung | SR leukemia | ACHN renal | NCI-H226 lung | OVCAR-5 ovarian | KM12 colon | NCI-H522 lung | HOP-62 NSCLC | MDA-MB-435 | HT29 colon | OVCAR-3 ovarian | HOP-92 NSCLC | TK-10 renal | HL-60(TB) leukemia
